According to PMC10382584, “Macrocyclization of linear molecules by deep learning to facilitate macrocyclic drug candidates discovery” (Nature Communications, 2023):

Assays:
Experiment in all cases: biochemical
Parameters in all cases: DiscoveRx KINOMEscan competition binding, percent of DMSO control signal at 100 nM
Settings in all cases: read-out: Fig. 4a / Percent Control / Compound 1; percent of DMSO control, competition binding
TAOK3 = TAOK3 (Homo sapiens, UniProt Q9H2K8)
RIOK3 = RIOK3 (Homo sapiens, UniProt O14730)
LIMK2 = LIMK2 (Homo sapiens, UniProt P53671)
BMX = BMX (Homo sapiens, UniProt P51813)
PKN1 = PKN1 (Homo sapiens, UniProt Q16512)
[1] = target: T1, JAK2(JH1domain-catalytic) (Homo sapiens, UniProt O60674)
T1 construct: JH1domain-catalytic

DDR1 = DDR1 (Homo sapiens, UniProt Q08345)
STK36 = STK36 (Homo sapiens, UniProt Q9NRP7)
[2] = target: EGFR(L747-E749del, A750P) (Homo sapiens, UniProt P00533, A750P/DEL747-749)
EGFR(L747-E749del, A750P), sequence (P00533 with tags, fused parts or gaps DEL747-749/A750P): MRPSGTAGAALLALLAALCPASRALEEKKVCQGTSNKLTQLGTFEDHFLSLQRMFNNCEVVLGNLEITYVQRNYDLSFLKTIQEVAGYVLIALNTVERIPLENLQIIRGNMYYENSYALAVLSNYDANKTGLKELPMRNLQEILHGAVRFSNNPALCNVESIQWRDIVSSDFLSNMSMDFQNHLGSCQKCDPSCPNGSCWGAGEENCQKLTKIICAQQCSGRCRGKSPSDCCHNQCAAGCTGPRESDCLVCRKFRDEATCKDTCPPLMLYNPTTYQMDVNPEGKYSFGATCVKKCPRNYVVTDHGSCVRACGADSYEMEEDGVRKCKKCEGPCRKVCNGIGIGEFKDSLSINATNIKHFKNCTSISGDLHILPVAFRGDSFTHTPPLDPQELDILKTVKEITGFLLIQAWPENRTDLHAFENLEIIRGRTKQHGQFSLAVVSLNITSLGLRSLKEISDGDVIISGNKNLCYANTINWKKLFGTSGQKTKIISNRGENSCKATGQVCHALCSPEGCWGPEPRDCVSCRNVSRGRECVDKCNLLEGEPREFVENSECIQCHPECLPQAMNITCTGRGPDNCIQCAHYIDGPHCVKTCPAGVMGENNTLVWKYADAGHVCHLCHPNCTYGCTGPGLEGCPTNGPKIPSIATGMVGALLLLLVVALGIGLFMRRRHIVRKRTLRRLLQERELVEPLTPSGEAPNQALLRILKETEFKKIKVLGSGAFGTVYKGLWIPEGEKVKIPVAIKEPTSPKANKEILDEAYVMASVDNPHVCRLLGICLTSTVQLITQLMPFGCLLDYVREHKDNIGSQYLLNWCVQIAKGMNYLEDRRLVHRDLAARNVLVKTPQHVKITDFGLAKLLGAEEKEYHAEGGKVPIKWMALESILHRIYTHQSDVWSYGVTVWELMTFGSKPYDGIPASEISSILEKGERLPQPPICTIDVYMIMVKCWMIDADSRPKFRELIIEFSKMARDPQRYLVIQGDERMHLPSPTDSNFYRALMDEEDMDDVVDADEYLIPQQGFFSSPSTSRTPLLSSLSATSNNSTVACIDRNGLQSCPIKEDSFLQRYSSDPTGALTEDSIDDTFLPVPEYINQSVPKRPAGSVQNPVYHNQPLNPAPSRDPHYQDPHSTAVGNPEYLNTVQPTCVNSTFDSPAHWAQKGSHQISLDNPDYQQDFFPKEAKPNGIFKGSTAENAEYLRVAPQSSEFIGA

STK35 = STK35 (Homo sapiens, UniProt Q8TDR2)
STK35, sequence (Q8TDR2 whole entry): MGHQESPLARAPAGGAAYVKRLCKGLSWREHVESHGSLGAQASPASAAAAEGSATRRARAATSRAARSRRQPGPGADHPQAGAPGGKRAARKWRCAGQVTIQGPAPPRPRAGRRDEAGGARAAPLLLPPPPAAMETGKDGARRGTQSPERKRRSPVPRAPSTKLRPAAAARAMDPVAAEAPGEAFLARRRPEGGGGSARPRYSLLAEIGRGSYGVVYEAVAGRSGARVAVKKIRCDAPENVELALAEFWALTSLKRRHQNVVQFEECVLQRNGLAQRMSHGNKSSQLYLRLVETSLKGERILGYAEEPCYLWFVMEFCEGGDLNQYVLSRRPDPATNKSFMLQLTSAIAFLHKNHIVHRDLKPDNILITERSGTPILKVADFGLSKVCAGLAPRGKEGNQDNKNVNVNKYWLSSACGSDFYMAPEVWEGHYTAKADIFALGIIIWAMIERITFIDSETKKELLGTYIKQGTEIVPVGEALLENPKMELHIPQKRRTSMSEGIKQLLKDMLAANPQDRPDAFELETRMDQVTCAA

EPHA5 = EPHA5 (Homo sapiens, UniProt P54756)
FLT3 = FLT3 (Homo sapiens, UniProt P36888)
BIKE = target: T2, BIKE (Homo sapiens, UniProt Q9NSY1)
T2 construct: gene BMP2K

PIK3CA(H1047Y) = PIK3CA(H1047Y) (Homo sapiens, UniProt P42336, H1047Y)
PLK3 = PLK3 (Homo sapiens, UniProt Q9H4B4)
DMPK2 = target: T3, DMPK2 (Homo sapiens, UniProt Q6DT37)
T3 construct: gene CDC42BPG
T3 sequence (Q6DT37 whole entry): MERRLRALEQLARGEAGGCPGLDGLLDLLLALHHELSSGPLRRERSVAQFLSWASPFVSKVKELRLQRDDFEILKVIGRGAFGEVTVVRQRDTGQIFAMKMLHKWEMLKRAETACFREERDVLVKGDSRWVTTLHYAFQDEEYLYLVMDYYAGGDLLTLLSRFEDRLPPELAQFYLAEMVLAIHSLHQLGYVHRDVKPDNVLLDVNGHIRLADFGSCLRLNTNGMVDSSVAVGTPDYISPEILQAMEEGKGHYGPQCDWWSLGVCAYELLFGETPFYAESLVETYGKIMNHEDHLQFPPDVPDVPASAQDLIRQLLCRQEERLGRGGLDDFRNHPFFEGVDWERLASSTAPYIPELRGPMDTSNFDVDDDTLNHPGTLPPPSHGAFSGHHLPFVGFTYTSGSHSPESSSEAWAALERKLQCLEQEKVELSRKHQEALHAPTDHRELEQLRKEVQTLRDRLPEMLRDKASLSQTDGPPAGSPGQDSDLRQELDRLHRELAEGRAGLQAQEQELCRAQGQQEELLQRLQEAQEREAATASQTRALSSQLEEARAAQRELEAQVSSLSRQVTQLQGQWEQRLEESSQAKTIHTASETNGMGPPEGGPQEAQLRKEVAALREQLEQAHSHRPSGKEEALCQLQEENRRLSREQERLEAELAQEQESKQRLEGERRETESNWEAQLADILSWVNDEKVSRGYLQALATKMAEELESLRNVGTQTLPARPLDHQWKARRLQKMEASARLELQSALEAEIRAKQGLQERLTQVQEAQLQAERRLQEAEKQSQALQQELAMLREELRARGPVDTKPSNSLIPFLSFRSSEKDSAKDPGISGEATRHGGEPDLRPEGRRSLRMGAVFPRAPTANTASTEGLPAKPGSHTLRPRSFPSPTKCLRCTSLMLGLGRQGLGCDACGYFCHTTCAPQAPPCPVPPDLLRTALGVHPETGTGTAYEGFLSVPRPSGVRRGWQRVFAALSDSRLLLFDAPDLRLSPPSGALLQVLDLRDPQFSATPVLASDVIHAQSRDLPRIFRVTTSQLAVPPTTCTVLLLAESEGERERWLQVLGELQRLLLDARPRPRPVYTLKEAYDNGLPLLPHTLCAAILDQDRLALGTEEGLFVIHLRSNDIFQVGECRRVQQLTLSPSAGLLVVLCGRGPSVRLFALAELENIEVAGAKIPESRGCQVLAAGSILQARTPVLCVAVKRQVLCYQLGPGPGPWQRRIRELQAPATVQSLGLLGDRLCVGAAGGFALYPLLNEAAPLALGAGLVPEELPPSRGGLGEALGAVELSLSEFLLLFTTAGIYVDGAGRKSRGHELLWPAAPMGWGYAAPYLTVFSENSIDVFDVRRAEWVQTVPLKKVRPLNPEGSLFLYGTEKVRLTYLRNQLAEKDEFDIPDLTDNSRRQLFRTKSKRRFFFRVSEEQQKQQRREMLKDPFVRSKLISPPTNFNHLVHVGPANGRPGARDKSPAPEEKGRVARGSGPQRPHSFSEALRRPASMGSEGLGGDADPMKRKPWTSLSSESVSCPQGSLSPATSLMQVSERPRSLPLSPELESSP

FLT3(D835V) = FLT3(D835V) (Homo sapiens, UniProt P36888, D835V)
FGFR3(G697C) = FGFR3(G697C) (Homo sapiens, UniProt P22607, G697C)
FGFR3(G697C), sequence (P22607 whole entry G697C): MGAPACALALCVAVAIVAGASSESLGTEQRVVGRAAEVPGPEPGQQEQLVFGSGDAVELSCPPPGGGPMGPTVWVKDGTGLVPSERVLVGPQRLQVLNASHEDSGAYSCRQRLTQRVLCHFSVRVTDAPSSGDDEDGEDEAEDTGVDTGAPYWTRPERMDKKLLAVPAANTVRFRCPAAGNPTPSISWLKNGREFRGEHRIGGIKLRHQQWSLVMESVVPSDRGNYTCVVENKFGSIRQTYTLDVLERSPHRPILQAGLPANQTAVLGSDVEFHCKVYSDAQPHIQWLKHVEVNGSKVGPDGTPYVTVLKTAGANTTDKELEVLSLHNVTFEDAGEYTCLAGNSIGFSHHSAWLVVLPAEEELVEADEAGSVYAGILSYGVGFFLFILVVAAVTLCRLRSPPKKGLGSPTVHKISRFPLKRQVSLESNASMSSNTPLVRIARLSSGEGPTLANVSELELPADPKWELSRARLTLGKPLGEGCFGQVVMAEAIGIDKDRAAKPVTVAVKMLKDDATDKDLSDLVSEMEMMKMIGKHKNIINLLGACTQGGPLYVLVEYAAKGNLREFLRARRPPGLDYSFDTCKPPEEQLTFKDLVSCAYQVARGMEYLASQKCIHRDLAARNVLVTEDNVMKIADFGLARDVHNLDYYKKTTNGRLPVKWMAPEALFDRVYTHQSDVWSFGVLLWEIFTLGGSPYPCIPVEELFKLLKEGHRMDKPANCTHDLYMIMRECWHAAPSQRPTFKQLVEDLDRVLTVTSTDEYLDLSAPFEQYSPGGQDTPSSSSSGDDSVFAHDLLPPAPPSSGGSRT

SIK2 = SIK2 (Homo sapiens, UniProt Q9H0K1)
ERK4 = target: T4, ERK4 (Homo sapiens, UniProt P31152)
T4 construct: gene MAPK4

BLK = BLK (Homo sapiens, UniProt P51451)
MAST1 = MAST1 (Homo sapiens, UniProt Q9Y2H9)
PRKCI = PRKCI (Homo sapiens, UniProt P41743)
PRKCI, sequence (P41743 whole entry): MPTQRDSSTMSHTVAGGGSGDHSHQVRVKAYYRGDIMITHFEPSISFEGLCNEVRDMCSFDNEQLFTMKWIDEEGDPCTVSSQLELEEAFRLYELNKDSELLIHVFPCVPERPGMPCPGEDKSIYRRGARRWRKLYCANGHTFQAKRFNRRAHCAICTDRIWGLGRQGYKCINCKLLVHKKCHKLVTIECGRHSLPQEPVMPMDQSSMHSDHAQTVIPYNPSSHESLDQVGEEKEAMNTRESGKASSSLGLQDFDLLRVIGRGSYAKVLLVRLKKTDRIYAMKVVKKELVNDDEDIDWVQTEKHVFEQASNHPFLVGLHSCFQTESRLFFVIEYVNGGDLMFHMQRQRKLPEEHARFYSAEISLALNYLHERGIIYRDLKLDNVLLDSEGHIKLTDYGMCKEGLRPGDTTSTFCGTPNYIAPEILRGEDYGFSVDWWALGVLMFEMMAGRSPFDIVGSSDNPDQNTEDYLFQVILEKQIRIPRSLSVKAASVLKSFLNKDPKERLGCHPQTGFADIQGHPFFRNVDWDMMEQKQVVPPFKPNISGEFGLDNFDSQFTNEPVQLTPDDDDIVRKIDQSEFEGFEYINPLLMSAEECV

DAPK2 = DAPK2 (Homo sapiens, UniProt Q9UIK4)
DAPK2, sequence (Q9UIK4 whole entry): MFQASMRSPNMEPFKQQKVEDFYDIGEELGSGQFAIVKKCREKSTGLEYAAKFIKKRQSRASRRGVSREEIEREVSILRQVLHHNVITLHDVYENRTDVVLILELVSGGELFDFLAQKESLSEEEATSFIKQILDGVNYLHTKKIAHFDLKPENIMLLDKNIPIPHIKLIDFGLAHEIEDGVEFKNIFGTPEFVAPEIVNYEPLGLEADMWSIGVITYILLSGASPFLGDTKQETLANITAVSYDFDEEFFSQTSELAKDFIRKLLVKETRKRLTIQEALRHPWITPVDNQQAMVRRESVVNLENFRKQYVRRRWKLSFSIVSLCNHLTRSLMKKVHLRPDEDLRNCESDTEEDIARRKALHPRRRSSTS

ROCK2 = ROCK2 (Homo sapiens, UniProt O75116)
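Also: KINOMEscan kinase panel binding assay, signal normalized between DMSO as 100% and a positive control compound as 0%.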

SMILES: Cc1cnc2nc1Nc1cccc(c1)COCc1cc(ccc1OCCN1CCCC1)N2 [Compound 1]
- remaining binding at 0.1 µM (TAOK3): 56%
- remaining binding at 0.1 µM (RIOK3): 79%
- remaining binding at 0.1 µM (LIMK2): 92%
- remaining binding at 0.1 µM (BMX): 93%
- remaining binding at 0.1 µM (PKN1): 93%
- remaining binding at 0.1 µM [1]: 0%
- remaining binding at 0.1 µM (DDR1): 93%
- remaining binding at 0.1 µM (STK36): 97%
- remaining binding at 0.1 µM [2]: 88%
- remaining binding at 0.1 µM (STK35): 92%
- remaining binding at 0.1 µM (EPHA5): 100%
- remaining binding at 0.1 µM (FLT3): 36%
- remaining binding at 0.1 µM (BIKE): 47%
- remaining binding at 0.1 µM (PIK3CA(H1047Y)): 91%
- remaining binding at 0.1 µM (PLK3): 99%
- remaining binding at 0.1 µM (DMPK2): 98%
- remaining binding at 0.1 µM (FLT3(D835V)): 3.3%
- remaining binding at 0.1 µM (FGFR3(G697C)): 94%
- remaining binding at 0.1 µM (SIK2): 94%
- remaining binding at 0.1 µM (ERK4): 81%
- remaining binding at 0.1 µM (BLK): 76%
- remaining binding at 0.1 µM (MAST1): 94%
- remaining binding at 0.1 µM (PRKCI): 80%
- remaining binding at 0.1 µM (DAPK2): 98%
- remaining binding at 0.1 µM (ROCK2): 83%
